Patent US6117849A, “S-(+)-adenosylmethionine and 3'-azido-2', 3'-dideoxy-nucleoside complexes as potent inhibitors of HIV-replication” (Symbio Herborn Group GmbH & Co., priority 1996, dated 2000)

How the values were obtained:
HIV-1 isolate of HIV IIB = experiment: HIV replication in de novo infected lymphocyte cultures, viral core protein p24 endpoint; format: cell-based, HIV-1 (in human peripheral blood lymphocytes); conditions: FIG. 1, p24
Description: For this purpose, SAM has been tested in a dose response titration ranging from 1000 μg/mL to 10 μg/mL final concentrations for the ability to inhibit HIV replication in de novo infected cells. Endpoint in this assay was the quantitative determination of the concentration of the viral core protein p24 as described by Mueller et al. (Mueller, Ch., Moritz, R., Prigge, G., Weitzel, D., Kunze, R., Kage, A., Koettgen, E., Fresenius Z. Anal. Chem.,330, 352-353, 1988). […] The toxicity testing of cellular proliferation was performed according to J. Mosmann (J. Immunological Methods, 65, 55-63, 1983). […] All experiments were carried out in triplicate cultures, including those for the various concentrations of the molecular complexes tested.--The lymphocytes were infected with a standardized preparation of HIV-1 isolate of HIV IIB. The cells were sedimented by low speed centrifugation, the sediment resuspended in the assay buffer (standard), and the resuspended cells were inoculated by adjusting to the following conditions: 100 ng of viral core protein p24/mL and 3200 pg HIV RNA/mL, respectively. Normally 3×10^8 lymphocytes were suspended in 1 mL if the HIV inoculum, and incubated at 37° C. for 60 minutes. After washing the cells twice with 50 mL of culture medium the cells were resuspended at a concentration of 3×10^6 cells/mL in culture medium which contains 10 units/mL of human recombinant interleukin-2. 100 μL of this cell suspension were added to 100 μL of the pre-diluted solution of the compounds to be tested, without adding any salt or protein. The entire assay was cultivated in humidified atmosphere in the presence of 5% CO2 at 37° C. After the 4th day of infection the viral replication was determined in the lymphocyte cultures. The end point of the titration was the determination of the viral core protein p24 in the supernatant of each of the lymphocyte cultures. 150 μL of the supernatant were removed and transferred to a vial containing 50 μL/well SDS at a final concentration of 0.08% (w/w). The concentration of the synthesized p24 by the HIV infected cells was determined according to Mueller et al., using recombinant p24 as a standard for calibration.

[1] = molecular target: T1, reverse transcriptase (RT) (HIV-1 M:B_HXB2R, UniProt P04585); conditions: read-out: apparent Ki (recalculated, corrected for DTT); recalculated from literature
Description: The disclosed inhibitory concentrations of SAM is meant as the apparent concentration of SAM, which inhibits under their in vitro assay conditions 50% of the RT activity. […] Inhibitory experiments using DTT, e g. for protecting sulfhydryl groups of the enzyme (RT), in their assay have to be omitted or corrected for, respectively, since DTT act as a strong reducing agent, particularly for SAM or SAM-tosylate-bis-sulfate which potentiates the reduction due to the sulfonium group which is being reduced to the sulfinium group, or to S-S-complexes comprising of SAM and DDT, respectively. […] Note, the determined inhibitory concentrations are not the ones which can be correlated to the ones according to Michaelis-Mentenkinetics.

HIV = experiment: TPA- or cytokine-stimulated HIV replication/expression; format: cell-based; conditions: in vitro
[2] = human, in vivo
IL-β, IL-2 = experiment: Cytokine biosynthesis after stimulation of lymphocytes; format: cell-based; conditions: after phytohemagglutination stimulation
[3] = test system: RT (triphosphatase activity); experiment: Triphosphatase activity in presence of RT and phosphate; format: biochemical, HIV; conditions: in the presence of phosphate (Pi)
Text: Furthermore the efficiency of such molecular complexes is also seen on the rate at which they are metabolized intra cellularly to the corresponding free ddNMP available to be further transformed to the triphosphate derivative active on the RT, which is enhanced due to these molecular complexes as shown through the kinetics in-vitro and in-vivo. In order to make this transformation feasible, the unique and stable molecular conformation of these complexes and their solvation facilitates the inhibitory and regulatory effects on RT, lipid penetration and inhibitory effects on the growing infective RNA or DNA polymeric chains. The avoidance of e.g. AZT-monophosphate accumulation, similarly also for other ddN N3 compounds, which causes severe inhibition of cellular dTMP kinase, resulting in a blockade of further phosphorylation steps, while on the contrary, the disclosed molecular complexes, appear to be unable to induce the same effects and is clearly incapable of inhibiting their own phosphorylation. This is completely different from those of the single administration of the components, e.g. SAM and ddN≈N3. […] This is also endorsed by the findings that the kinetics of inhibition on the RT enzyme is influenced by the presence of inorganic phosphate resulting in restoring active ATP during the presence of SAM. […]

[4] = molecular target: T1, reverse transcriptase (RT); format: biochemical; design: A2: RT in cord-blood lymphocyte cultures infected with HIV from an AIDS patient
Description: The second in-vitro test uses the enzymatic activity of RT, testing the kinetic and inhibitory action of the molecular complexes. The cloning of the RT in biologically active form made it possible to have large quantities of the RT enzyme available for these studies (RT from Sigma, lot # R 9376).
The steady state reaction conditions for RT are chosen that approximate physiological conditions are met: pH 7.45 (37° C.), ionic strength of 150 mM, routinely a buffer was employed consisting of 50 mM TRIS-HCl, 100 mM KCl, 5 mM MgCl2, the addition of 10 μg/mL bovine serum albumin were included. […] The aforementioned precautions designed to avoid potential reduction of SAM in the presence of DTT are taken into accounts to preclude any distortions of the kinetic behavior of the RT enzyme in the presence of the various substrates e.g. as our molecular compounds. […] The enzyme concentrations of RT was approx. 20 nM, T-P (template-primer) […] and 25 μM of [^3 H]-dNTP (assay conditions are modified fro those of Mayunder et al., J. biol. Chem.,263, 15657, 1988). […] In case both parameters are effected to the same extent, then the inhibition is uncompetitive. In order to facilitate the difference between SAM kinetics and those for the molecular complexes we studied first SAM kinetics and subsequently the kinetics in the presence of the molecular complexes. […] Similar experiments have been carries out with dGTP.
The enzyme was assayed with 50 nM primer sites on poly (rA): oligo (dT), and variable concentrations of [^3 H] dTP as substrates in a reaction mixture as described above at pH 7.5 (37° C.).

thymidylate kinase = experiment: Inhibition of thymidylate kinase, in vitro; format: biochemical

Structure (SMILES): C[S+](CC[C@H](N)C(=O)O)C[C@H]1O[C@@H](n2cnc3c(N)ncnc32)[C@H](O)[C@@H]1O (single isomer, unassigned; (+)) [SAM, (+)-5'-[(3-amino-3-carboxypropyl)methylsulfinio]-5'-deoxyadenosine]
- inhibition of HIV replication (HIV-1 isolate of HIV IIB): inhibited HIV replication in a dose dependent response
- Ki [1]: 200 to 250 nM
- cytokine-activation of HIV expression (HIV): does not inhibit cytokine-activation of HIV expression in vitro
- CSF peak of SAM relative to plasma [2]: lower and more prolonged for healthy patients
- fraction unbound (in vitro): 0.95 to 0.97
- cytokine biosynthesis (IL-β, IL-2) (IL-β, IL-2): influenced
- triphosphatase activity [3]: stimulated
- stability in RT assay with DTT [4]: destroy SAM
- inhibition of thymidylate kinase (thymidylate kinase): reversal of the inhibition of the thymidylate kinase
